According to PMC10368877, “Acid-sensing ion channel blocker diminazene facilitates proton-induced excitation of afferent nerves in a similar manner that Na^+/H^+ exchanger blockers do” (Frontiers in Cellular Neuroscience, 2023):

System: T1, acid-sensing ion channels (native ASICs of mouse DRG neurons; subunit not identified)
T1 construct: native channels in primary cultured mouse DRG neurons
Experiment: whole-cell patch clamp, ASIC currents evoked by pH drop […] to […] at -60 mV
Type: cell-based

- IC50: 16.9 ± 4.4 µM
Compound: N=C(N)c1ccc(/N=N/Nc2ccc(C(=N)N)cc2)cc1 [diminazene]
